Results taken from patent US20240425483A1, “INDOLINES AS PROTAC COMPOUNDS” (NeoPhore Limited, priority 2021, published 2024).

Biological target: T1, PMS2 protein (Homo sapiens, UniProt P54278)
T1 construct: host or cells: SW620 human colorectal carcinoma cells
T1 sequence (P54278 1-862): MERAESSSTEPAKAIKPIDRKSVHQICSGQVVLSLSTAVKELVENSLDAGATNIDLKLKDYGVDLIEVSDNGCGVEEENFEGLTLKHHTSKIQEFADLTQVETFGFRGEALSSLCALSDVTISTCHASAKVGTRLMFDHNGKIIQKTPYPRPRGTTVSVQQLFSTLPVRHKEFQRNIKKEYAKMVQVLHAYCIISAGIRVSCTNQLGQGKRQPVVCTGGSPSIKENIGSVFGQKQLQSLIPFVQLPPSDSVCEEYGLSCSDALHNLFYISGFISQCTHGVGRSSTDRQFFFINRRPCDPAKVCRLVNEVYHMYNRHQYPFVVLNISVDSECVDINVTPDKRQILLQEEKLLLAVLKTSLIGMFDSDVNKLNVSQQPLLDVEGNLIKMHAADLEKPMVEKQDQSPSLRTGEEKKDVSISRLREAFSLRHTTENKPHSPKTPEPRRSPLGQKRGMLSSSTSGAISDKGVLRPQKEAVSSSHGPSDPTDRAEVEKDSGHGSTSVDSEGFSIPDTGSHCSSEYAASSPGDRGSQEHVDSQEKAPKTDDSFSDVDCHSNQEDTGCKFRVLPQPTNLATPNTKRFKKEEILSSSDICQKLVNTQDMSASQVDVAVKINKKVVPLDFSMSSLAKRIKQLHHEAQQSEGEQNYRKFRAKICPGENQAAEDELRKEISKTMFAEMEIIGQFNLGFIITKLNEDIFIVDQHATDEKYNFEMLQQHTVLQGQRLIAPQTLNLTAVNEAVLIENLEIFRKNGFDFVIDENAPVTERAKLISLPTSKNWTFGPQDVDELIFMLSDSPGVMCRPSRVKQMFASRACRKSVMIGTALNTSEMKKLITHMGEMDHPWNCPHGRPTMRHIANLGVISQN
Assay: PROTAC screening in SW620 human colorectal carcinoma cells, PMS2 protein level by JESS Western blot
Assay type: cell-based
Settings: SW-620, 24 h, 1 uM compound, normalised to actin and DMSO control, Table A1
Description: PROTAC Screening Protocol Using SW620 Human Colorectal Carcinoma Cells
SVW620 cells (ATCC/[…]) were cultured in T75 Falcon flasks in culture media (F12/DMEM 1:1 media, 10% FCS, +L-G supplement). Cells were split twice a week, for a maximum of 6 weeks. Media was aspirated, and cells washed with 10 mL of sterile PBS. PBS was aspirated, and cells incubated with 1.5 mL TrypLE for up to 5 minutes at 37° C., 5% CO2. Once cells had detached, TrypLE was neutralised with 10 mL culture media and cells mixed 1:1 with Trypan blue and quantified using a Luna cell counter. Cells were then seeded into fresh T75 flasks with 1×10^6 cells and 10 mL culture media.
SW620 cells, cultured and counted as above, were used to seed 12 well plates at a density of 1.5×10^5 cells/well and incubated overnight at 37° C., 5% CO2. Test compounds were solubilized in DMSO to a stock concentration of 10 mM and serially diluted in DMSO and media to their test concentration; the final concentration of DMSO was 0.1% (v/v). Each concentration was tested in triplicate. SW620 cells were incubated with test compound for 24 hours at 37° C., 5% CO2. Media was aspirated from each well, and each well washed with 1 mL ice cold PBS. PBS was then aspirated, and 50 μL of cold lysis buffer (RIPA buffer supplemented with 1× protease inhibitors, Benzonase, MgCl) was added to each well; plates were then incubated on ice for 5 minutes. Cells were scraped using a pipette tip before being transferred to a fresh Eppendorf. Samples were spun at maximum speed in a benchtop centrifuge for 5 minutes at 4° C. and supernatant was then transferred to fresh tubes. Samples were stored at −80° C. until analysis.
Bicinchonininic acid (BCA) protein assay standards (2-0.125 mg/mL BSA) were prepared in advance. 6 μL of each standard was pipetted in duplicate into rows A and B of a 384-well assay plate. Test samples were diluted in lysis buffer (1:3-1:10) in a 384-well plate in duplicate. BCA Reagents were combined 50:1, Part A:Part B and 50 μL added to each well. Plates were incubated for 30 min at 37° C. in a plate incubator and read using a BCA protein 384 protocol on an EnSpire plate reader. Protein concentrations were calculated from a standard curve.
JESS Western Blot Protocol
Protein lysates were prepared using Protein Simple EZ standard pack reagents: 40 μL distilled H2O was added to a DTT tube (clear) and treated with 20 μL 10× sample buffer and 20 μL DTT to 5×MM tube (pink). 20 μL dH2O was added to biotinylated ladder tube (green).
Test samples were prepared by dilution to the required concentration (0.1 mg/mL) in 0.1× sample buffer. 1.25 μL 5× fluorescent master mix from the EZ standard pack was added to 5 μL sample for each lane to be loaded (e.g. 2.5 μL+10 μL if loading same sample into 2 wells). Samples were vortexed, briefly spun down and heated at 95° C. for 5 min in a PCR machine then vortexed again and briefly spun down before loading onto JESS cassettes (catalogue No: SM-W004) according to manufacturer's instructions (https://www.proteinsimple.com/technical_library.html?product=simplewestern&def_list=list). Protein expression was determined by the peak area of the target protein signal. Peak area of the target protein was normalised to peak area of the loading control (actin) and to DMSO control.

Row | Compound | remaining activity at 1 µM [%]
1 | Cc1c(O)cc(O)c(C(=O)N2Cc3ccc(CN4CCN(CCOCCOCCOCCOc5cccc6c5CN(C5CCC(=O)NC5=O)C6=O)CC4)cc3C2)c1OCc1ccccc1 (stereo not drawn) [Example 14, 3-(4-(2-(2-(2-(2-(4-((2-(2-(Benzyloxy)-4,6-dihydroxy-3-methylbenzoyl)isoindolin-5-yl)methyl)piperazin-1-yl)ethoxy)ethoxy)ethoxy)ethoxy)-1-oxoisoindolin-2-yl)piperidine-2,6-dione] | 10 to 25
2 | Cc1c(O)cc(O)c(C(=O)N2Cc3ccc(CN4CCN(CCOCCOCCOCCNc5cccc6c5CN(C5CCC(=O)NC5=O)C6=O)CC4)cc3C2)c1OCc1ccccc1 (stereo not drawn) [Example 15, 3-(4-((2-(2-(2-(2-(4-((2-(2-(Benzyloxy)-4,6-dihydroxy-3-methylbenzoyl)isoindolin-5-yl)methyl)piperazin-1-yl)ethoxy)ethoxy)ethoxy)ethyl)amino)-1-oxoisoindolin-2-yl)piperidine-2,6-dione] | 10 to 25
3 | Cc1c(O)cc(O)c(C(=O)N2Cc3ccc(C(=O)N4CCC(OCCOCCOCCN5CCN(c6cc7c(cc6F)C(=O)N(C6CCC(=O)NC6=O)C7=O)CC5)CC4)cc3C2)c1OCc1ccccc1 (stereo not drawn) [Example 18, 5-(4-(2-(2-(2-((1-(2-(2-(Benzyloxy)-4,6-dihydroxy-3-methylbenzoyl)isoindoline-5-carbonyl)piperidin-4-yl)oxy)ethoxy)ethoxy)ethyl)piperazin-1-yl)-2-(2,6-dioxopiperidin-3-yl)-6-fluoroisoindoline-1,3-dione] | 25 to 50
4 | Cc1c(O)cc(O)c(C(=O)N2Cc3ccc(CN4CCN(CCOCCOCCOCCOCCNc5ccc6c(c5)C(=O)N(C5CCC(=O)NC5=O)C6=O)CC4)cc3C2)c1OCc1ccccc1 (stereo not drawn) [Example 19, 5-[2-[2-[2-[2-[2-[4-[[2-(2-Benzyloxy-4,6-dihydroxy-3-methyl-benzoyl)isoindolin-5-yl]methyl]piperazin-1-yl]ethoxy]ethoxy]ethoxy]ethoxy]ethylamino]-2-(2,6-dioxo-3-piperidyl)isoindoline-1,3-dione] | < 10
5 | Cc1ncsc1-c1ccc(CNC(=O)[C@@H]2C[C@@H](O)CN2C(=O)[C@@H](NC(=O)CCCCCCCCCC(=O)N2CCN(Cc3ccc4c(c3)CN(C(=O)c3c(O)cc(O)c(C)c3OCc3ccccc3)C4)CC2)C(C)(C)C)cc1 [Example 24, (2S,4R)-1-((S)-2-(11-(4-((2-(2-(Benzyloxy)-4,6-dihydroxy-3-methylbenzoyl)isoindolin-5-yl)methyl)piperazin-1-yl)-11-oxoundecanamino)-3,3-dimethylbutanoyl)-4-hydroxy-N-(4-(4-methylthiazol-5-yl)benzyl) pyrrolidine-2-carboxamide] | < 10
6 | Cc1ncsc1-c1ccc(CNC(=O)[C@@H]2C[C@@H](O)CN2C(=O)[C@@H](NC(=O)CCCCCCC(=O)N2CCN(Cc3ccc4c(c3)CN(C(=O)c3c(O)cc(O)c(C)c3OCc3ccccc3)C4)CC2)C(C)(C)C)cc1 [Example 25, (2S,4R)-1-[(2S)-2-[[8-[4-[[2-(2-Benzyloxy-4,6-dihydroxy-3-methyl-benzoyl)isoindolin-5-yl]methyl]piperazin-1-yl]-8-oxo-octanoyl]amino]-3,3-dimethyl-butanoyl]-4-hydroxy-N-[[4-(4-methylthiazol-5-yl)phenyl]methyl]pyrrolidine-2-carboxamide] | < 10

Results, then the compound that gave them:

Row | remaining activity at 1 µM [%] | Compound
7 | 25 to 50 | Cc1c(O)cc(O)c(C(=O)N2Cc3ccc(CN4CCN(CCOCCOCCOCCNc5ccc6c(c5)CN(C5CCC(=O)NC5=O)C6=O)CC4)cc3C2)c1OCc1ccccc1 (stereo not drawn) [Example 16, 3-(5-((2-(2-(2-(2-(4-((2-(2-(Benzyloxy)-4,6-dihydroxy-3-methylbenzoyl)isoindolin-5-yl)methyl)piperazin-1-yl)ethoxy)ethoxy)ethoxy)ethyl)amino)-1-oxoisoindolin-2-yl)piperidine-2,6-dione]
8 | 10 to 25 | Cc1c(O)cc(O)c(C(=O)N2Cc3ccc(CN4CCN(CCOCCOCCOCCNc5cccc6c5CN(C5CCC(=O)NC5=O)C6=O)CC4)cc3C2)c1OCC1CCCCC1 (stereo not drawn) [Example 17, 3-(4-((2-(2-(2-(2-(4-((2-(2-(Cyclohexylmethoxy)-4,6-dihydroxy-3-methylbenzoyl)isoindolin-5-yl)methyl)piperazin-1-yl)ethoxy)ethoxy)ethoxy)ethyl)amino)-1-oxoisoindolin-2-yl)piperidine-2,6-dione]
9 | 10 to 25 | Cc1c(O)cc(O)c(C(=O)N2Cc3ccc(CN4CCC(CC(=O)N5CCN(c6ccc7c(c6)CN(C6CCC(=O)NC6=O)C7=O)CC5)CC4)cc3C2)c1OCC1CCCCC1 (stereo not drawn) [Example 20, 3-(5-(4-(2-(1-((2-(2-(Cyclohexylmethoxy)-4,6-dihydroxy-3-methylbenzoyl)isoindolin-5-yl)methyl)piperidin-4-yl)acetyl)piperazin-1-yl)-1-oxoisoindolin-2-yl)piperidine-2,6-dione]
10 | 10 to 25 | Cc1c(O)cc(O)c(C(=O)N2Cc3ccc(CN4CCC(C(=O)N5CCN(c6ccc7c(c6)CN(C6CCC(=O)NC6=O)C7=O)CC5)CC4)cc3C2)c1OCC1CCCCC1 (stereo not drawn) [Example 21, 3-(5-(4-(1-((2-(2-(cyclohexylmethoxy)-4,6-dihydroxy-3-methylbenzoyl)isoindolin-5-yl)methyl)piperidine-4-carbonyl)piperazin-1-yl)-1-oxoisoindolin-2-yl)piperidine-2,6-dione]
11 | 10 to 25 | Cc1c(O)cc(O)c(C(=O)N2Cc3ccc(C(=O)N4CCC(CN5CCN(c6ccc7c(c6)CN(C6CCC(=O)NC6=O)C7=O)CC5)CC4)cc3C2)c1OCc1ccccc1 (stereo not drawn) [Example 22, 3-(5-(4-((1-(2-(2-(Benzyloxy)-4,6-dihydroxy-3-methylbenzoyl)isoindoline-5-carbonyl)piperidin-4-yl)methyl)piperazin-1-yl)-1-oxoisoindolin-2-yl)piperidine-2,6-dione]
12 | 10 to 25 | Cc1c(O)cc(O)c(C(=O)N2Cc3ccc(C(=O)N4CCC(CN5CCN(c6cc7c(cc6F)C(=O)N(C6CCC(=O)NC6=O)C7=O)CC5)CC4)cc3C2)c1OCc1ccccc1 (stereo not drawn) [Example 23, 5-(4-((1-(2-(2-(Benzyloxy)-4,6-dihydroxy-3-methylbenzoyl)isoindoline-5-carbonyl)piperidin-4-yl)methyl)piperazin-1-yl)-2-(2,6-dioxopiperidin-3-yl)-6-fluoroisoindoline-1,3-dione]
